Test system: human umbilical vein endothelial cells
Experiment: Proliferation of human umbilical vein endothelial cells assessed by EdU uptake
Assay type: cell-based
Conditions: in vitro, dose response
Text: FIG. 16 illustrates palbociclib, CVT-313 and ribociclib dose response effects on proliferation of human umbilical vein endothelial cells assessed by EdU uptake.
This example discusses that endothelial cell cycle dysregulation is a mechanism involved in the development of arterio-venous malformations in HHT, as well as other types of vascular malformations named above. Palbociclib, a FDA-approved cell cycle inhibitor, could be used to prevent arterio-venous and other malformations, including venous, capillary, lymphatic and cerebral cavernous malformations.

SMILES | EC proliferation assessed by EdU uptake
COc1ccc(CNc2nc(N(CCO)CCO)nc3c2ncn3C(C)C)cc1 [CVT-313, 2-[2-hydroxyethyl-[6-[(4-methoxyphenyl)methylamino]-9-propan-2-ylpurin-2-yl]amino]ethanol] | inhibit EC proliferation
CN(C)C(=O)c1cc2cnc(Nc3ccc(N4CCNCC4)cn3)nc2n1C1CCCC1 [Ribociclib, 7-cyclopentyl-N,N-dimethyl-2-[(5-piperazin-1-ylpyridin-2-yl)amino]pyrrolo[2,3-d]pyrimidine-6-carboxamide] | inhibit EC proliferation
